The values below come from PubChem BioAssay AID1259407 (Chemical Carcinogenesis Research Information System (CCRIS), 2018).

For the data set, the system named is CCRIS mutagenicity, Ames/micronucleus/aberration tests. Kind of data set: CCRIS mutagenicity studies.
[1] abbreviates: Test System: AMES SALMONELLA TYPHIMURIUM, Strain/Indicator: TA98, Metabolic Activation: NONE, Method: STANDARD PLATE.
The mark [2] stands for this setting: Test System: AMES SALMONELLA TYPHIMURIUM, Strain/Indicator: TA100, Metabolic Activation: NONE, Method: STANDARD PLATE.
[3] abbreviates: Test System: AMES SALMONELLA TYPHIMURIUM, Strain/Indicator: TA102, Metabolic Activation: NONE, Method: STANDARD PLATE.

The source made the active and inactive calls. The rule behind the calls is not given here.

Consider `C1=CCCCC1`, for which the mutagenic call by setting is: under setting [1], “inactive; negative”; (Test System: AMES SALMONELLA TYPHIMURIUM, Strain/Indicator: TA98, Metabolic Activation: RAT LIVER S-9, SOVOL, Method: STANDARD PLATE) “inactive; negative”; under setting [2], “inactive; negative”; (Test System: AMES SALMONELLA TYPHIMURIUM, Strain/Indicator: TA100, Metabolic Activation: RAT LIVER S-9, SOVOL, Method: STANDARD PLATE) “inactive; negative”; (Test System: Ames Salmonella typhimurium, Strain/Indicator: TA98, Metabolic Activation: None, Method: Preincubation) “inactive; negative”; (Test System: Ames Salmonella typhimurium, Strain/Indicator: TA98, Metabolic Activation: Rat, Liver, S9, Sodium phenobarbital and 5,6-benzoflavone (10%), Method: Preincubation) “inactive; negative”. Besides, the mutagenic call (Test System: Ames Salmonella typhimurium, Strain/Indicator: TA100, Metabolic Activation: None, Method: Preincubation) is “inactive; negative”; the mutagenic call (Test System: Ames Salmonella typhimurium, Strain/Indicator: TA100, Metabolic Activation: Rat, Liver, S9, Sodium phenobarbital and 5,6-benzoflavone (10%), Method: Preincubation) is “inactive; negative”; the mutagenic call (Test System: Ames Salmonella typhimurium, Strain/Indicator: TA1535, Metabolic Activation: None, Method: Preincubation) was “inactive; negative”; the mutagenic call (Test System: Ames Salmonella typhimurium, Strain/Indicator: TA1535, Metabolic Activation: Rat, Liver, S9, Sodium phenobarbital and 5,6-benzoflavone (10%), Method: Preincubation) is “inactive; negative”; the mutagenic call (Test System: Ames Salmonella typhimurium, Strain/Indicator: TA1537, Metabolic Activation: None, Method: Preincubation) was “inactive; negative”; the mutagenic call (Test System: Ames Salmonella typhimurium, Strain/Indicator: TA1537, Metabolic Activation: Rat, Liver, S9, Sodium phenobarbital and 5,6-benzoflavone (10%), Method: Preincubation) was “inactive; negative”. For the same compound, the mutagenic call is “active; positive” (Test System: Ames Salmonella typhimurium, Strain/Indicator: TA2637, Metabolic Activation: None, Method: Preincubation); “inactive; negative” (Test System: Ames Salmonella typhimurium, Strain/Indicator: TA2637, Metabolic Activation: Rat, Liver, S9, Sodium phenobarbital and 5,6-benzoflavone (10%), Method: Preincubation); “inactive; negative” (Test System: E. coli, Strain/Indicator: WP2uvrA/pKM101, Metabolic Activation: None, Method: Preincubation); “inactive; negative” (Test System: E. coli, Strain/Indicator: WP2uvrA/pKM101, Metabolic Activation: Rat, Liver, S9, Sodium phenobarbital and 5,6-benzoflavone (10%), Method: Preincubation).
As to `CCOCCO`, the mutagenic call is “inactive; negative” (End Point: IN VITRO CHROMOSOMAL ABERRATIONS, Test System: CHINESE HAMSTER OVARY CELLS, Metabolic Activation: RAT, LIVER, S-9, AROCLOR 1254); “inactive; negative” (Test System: AMES SALMONELLA TYPHIMURIUM, Strain/Indicator: TA97A, Metabolic Activation: NONE, Method: STANDARD PLATE); “inactive; negative” (Test System: AMES SALMONELLA TYPHIMURIUM, Strain/Indicator: TA97A, Metabolic Activation: RAT, LIVER, S-9, AROCLOR 1254, Method: STANDARD PLATE); “inactive; negative” (Test System: AMES SALMONELLA TYPHIMURIUM, Strain/Indicator: TA98, Metabolic Activation: HAMSTER, LIVER, S-9, AROCLOR 1254 (10%), Method: PREINCUBATION); “inactive; negative” (Test System: AMES SALMONELLA TYPHIMURIUM, Strain/Indicator: TA98, Metabolic Activation: NONE, Method: PREINCUBATION); “inactive; negative” under setting [1]. Moreover, the mutagenic call reads like this: (Test System: AMES SALMONELLA TYPHIMURIUM, Strain/Indicator: TA98, Metabolic Activation: RAT, LIVER, S-9, AROCLOR 1254 (10%), Method: PREINCUBATION) “inactive; negative”; (Test System: AMES SALMONELLA TYPHIMURIUM, Strain/Indicator: TA98, Metabolic Activation: RAT, LIVER, S-9, AROCLOR 1254, Method: STANDARD PLATE) “inactive; negative”; (Test System: AMES SALMONELLA TYPHIMURIUM, Strain/Indicator: TA98, Metabolic Activation: RAT, LIVER, S-9, KC 500, Method: PREINCUBATION) “inactive; negative”; (Test System: AMES SALMONELLA TYPHIMURIUM, Strain/Indicator: TA100, Metabolic Activation: HAMSTER, LIVER, S-9, AROCLOR 1254 (10%), Method: PREINCUBATION) “inactive; negative”; (Test System: AMES SALMONELLA TYPHIMURIUM, Strain/Indicator: TA100, Metabolic Activation: NONE, Method: PREINCUBATION) “inactive; negative”; under setting [2], “inactive; negative”. For the same compound, the mutagenic call is, setting by setting: (Test System: AMES SALMONELLA TYPHIMURIUM, Strain/Indicator: TA100, Metabolic Activation: RAT, LIVER, S-9, AROCLOR 1254 (10%), Method: PREINCUBATION) “inactive; negative”; (Test System: AMES SALMONELLA TYPHIMURIUM, Strain/Indicator: TA100, Metabolic Activation: RAT, LIVER, S-9, AROCLOR 1254, Method: STANDARD PLATE) “inactive; negative”; (Test System: AMES SALMONELLA TYPHIMURIUM, Strain/Indicator: TA100, Metabolic Activation: RAT, LIVER, S-9, KC 500, Method: PREINCUBATION) “inactive; negative”; under setting [3], “inactive; negative”; (Test System: AMES SALMONELLA TYPHIMURIUM, Strain/Indicator: TA102, Metabolic Activation: RAT, LIVER, S-9, AROCLOR 1254, Method: STANDARD PLATE) “inactive; negative”; (Test System: AMES SALMONELLA TYPHIMURIUM, Strain/Indicator: TA1535, Metabolic Activation: HAMSTER, LIVER, S-9, AROCLOR 1254 (10%), Method: PREINCUBATION) “inactive; negative”. Moreover, the mutagenic call runs as follows: (Test System: AMES SALMONELLA TYPHIMURIUM, Strain/Indicator: TA1535, Metabolic Activation: NONE, Method: PREINCUBATION) “inactive; negative”; (Test System: AMES SALMONELLA TYPHIMURIUM, Strain/Indicator: TA1535, Metabolic Activation: RAT, LIVER, S-9, AROCLOR 1254 (10%), Method: PREINCUBATION) “inactive; negative”; (Test System: AMES SALMONELLA TYPHIMURIUM, Strain/Indicator: TA1535, Metabolic Activation: RAT, LIVER, S-9, KC 500, Method: PREINCUBATION) “inactive; negative”; (Test System: AMES SALMONELLA TYPHIMURIUM, Strain/Indicator: TA1537, Metabolic Activation: HAMSTER, LIVER, S-9, AROCLOR 1254 (10%), Method: PREINCUBATION) “inactive; negative”; (Test System: AMES SALMONELLA TYPHIMURIUM, Strain/Indicator: TA1537, Metabolic Activation: NONE, Method: PREINCUBATION) “inactive; negative”; (Test System: AMES SALMONELLA TYPHIMURIUM, Strain/Indicator: TA1537, Metabolic Activation: RAT, LIVER, S-9, AROCLOR 1254 (10%), Method: PREINCUBATION) “inactive; negative”. The mutagenic call was “inactive; negative” (Test System: AMES SALMONELLA TYPHIMURIUM, Strain/Indicator: TA1537, Metabolic Activation: RAT, LIVER, S-9, KC 500, Method: PREINCUBATION); “inactive; negative” (Test System: AMES SALMONELLA TYPHIMURIUM, Strain/Indicator: TA1538, Metabolic Activation: NONE, Method: PREINCUBATION); “inactive; negative” (Test System: AMES SALMONELLA TYPHIMURIUM, Strain/Indicator: TA1538, Metabolic Activation: RAT, LIVER, S-9, KC 500, Method: PREINCUBATION); “inactive; negative” (Test System: E. COLI, Strain/Indicator: WP2 UVRA, Metabolic Activation: NONE, Method: PREINCUBATION); “inactive; negative” (Test System: E. COLI, Strain/Indicator: WP2 UVRA, Metabolic Activation: RAT, LIVER, S-9, KC 500, Method: PREINCUBATION).
With `CN(N=O)C(=O)Nc1ccc(Br)cc1`, the mutagenic call (End Point: IN VITRO CHROMOSOMAL ABERRATIONS, Test System: CHINESE HAMSTER V79-E CELLS, Metabolic Activation: NONE) is “active; weakly positive”.
For `Clc1ncnc2nc[nH]c12`, the mutagenic call under setting [2] is “active; positive”.
Regarding `O=C(O)[C@@H]1CSCN1`, the mutagenic call was “inactive; negative” under setting [3]; “inactive; negative” (Test System: AMES SALMONELLA TYPHIMURIUM, Strain/Indicator: TA102, Metabolic Activation: RAT, LIVER, S-9, PHENOBARBITAL, Method: STANDARD PLATE); “inactive; negative” (Test System: AMES SALMONELLA TYPHIMURIUM, Strain/Indicator: TA104, Metabolic Activation: NONE, Method: STANDARD PLATE); “inactive; negative” (Test System: AMES SALMONELLA TYPHIMURIUM, Strain/Indicator: TA104, Metabolic Activation: RAT, LIVER, S-9, PHENOBARBITAL, Method: STANDARD PLATE).
Turning to `Cc1cc(C)c2c3c(cc4ccccc42)-c2ccccc2-c13`, where the note is “Test System: AMES SALMONELLA TYPHIMURIUM, Strain/Indicator: TA100, Metabolic Activation: RAT, LIVER, S-9, AROCLOR 1254”, the mutagenic call was “active; positive”.
